Reference: ChEMBL document CHEMBL2176970, “Discovery and optimization of a series of 3-(3-phenyl-3H-imidazo[4,5-b]pyridin-2-yl)pyridin-2-amines: orally bioavailable, selective, and potent ATP-independent Akt inhibitors” (J Med Chem, 2012)

Tests used:
[1] = molecular target: Macrophage colony-stimulating factor 1 receptor (Homo sapiens) (UniProt P07333); test: Inhibition of FMS using fluorescent labelled substrate at 5 uM by caliper method
[2] = molecular target: Serine/threonine-protein kinase PAK 3 (Homo sapiens) (UniProt O75914); test: Inhibition of PAK3 using fluorescent labelled substrate at 5 uM by caliper method
Sequence of Serine/threonine-protein kinase PAK 3 (Homo sapiens) (O75914 whole entry, looked up): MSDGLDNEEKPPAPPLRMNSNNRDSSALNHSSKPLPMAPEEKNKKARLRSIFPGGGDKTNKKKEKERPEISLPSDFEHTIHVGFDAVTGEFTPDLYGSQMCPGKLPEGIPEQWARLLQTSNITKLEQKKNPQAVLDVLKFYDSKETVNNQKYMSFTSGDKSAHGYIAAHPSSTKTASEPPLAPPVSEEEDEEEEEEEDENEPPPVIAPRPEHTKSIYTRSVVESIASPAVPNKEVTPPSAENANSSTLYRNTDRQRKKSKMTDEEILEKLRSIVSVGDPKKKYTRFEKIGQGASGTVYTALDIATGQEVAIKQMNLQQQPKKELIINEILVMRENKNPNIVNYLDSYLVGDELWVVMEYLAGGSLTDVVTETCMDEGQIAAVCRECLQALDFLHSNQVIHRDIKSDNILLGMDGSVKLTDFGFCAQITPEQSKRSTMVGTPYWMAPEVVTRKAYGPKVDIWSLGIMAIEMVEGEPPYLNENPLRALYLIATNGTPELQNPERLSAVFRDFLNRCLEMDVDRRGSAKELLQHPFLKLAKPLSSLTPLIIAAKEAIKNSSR

[3] = molecular target: T1, RAC-alpha serine/threonine-protein kinase (Homo sapiens, UniProt P31749); test: Inhibition of Akt1 in human AN3CA cells assessed as phosphorylation of Akt at S473 after 2 hrs by Western Blot analysis; assay type: cell-based, AN3-CA
T1 sequence (P31749 whole entry): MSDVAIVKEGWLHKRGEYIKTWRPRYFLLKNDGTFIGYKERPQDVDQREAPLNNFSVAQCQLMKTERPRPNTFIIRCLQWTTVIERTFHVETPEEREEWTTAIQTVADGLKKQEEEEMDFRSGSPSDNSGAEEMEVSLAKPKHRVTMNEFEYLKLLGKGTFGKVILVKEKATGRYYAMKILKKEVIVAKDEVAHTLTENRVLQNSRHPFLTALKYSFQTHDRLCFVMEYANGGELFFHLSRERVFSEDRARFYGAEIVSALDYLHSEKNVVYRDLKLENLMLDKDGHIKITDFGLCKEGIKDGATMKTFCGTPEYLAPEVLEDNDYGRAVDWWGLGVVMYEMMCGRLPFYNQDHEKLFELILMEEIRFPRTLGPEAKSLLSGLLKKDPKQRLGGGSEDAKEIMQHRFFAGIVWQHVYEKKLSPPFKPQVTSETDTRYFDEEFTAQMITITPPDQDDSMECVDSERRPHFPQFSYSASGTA

[4] = molecular target: T1, RAC-alpha serine/threonine-protein kinase; test: Inhibition of Akt1 in human A2780 cells assessed as phosphorylation PRAS40 at T246 after 2 hrs by Western Blot analysis; assay type: cell-based
[5] = molecular target: RAC-beta serine/threonine-protein kinase (Homo sapiens, UniProt P31751); test: Binding affinity to Akt2 (1 to 481) expressed in Sf9 cells assessed as change in melting temperature at 15 uM
[6] = molecular target: T1, RAC-alpha serine/threonine-protein kinase; test: Inhibition of Akt1 (1 to 480) expressed in Sf9 cells using biotin-GRPRTSSFAEG as substrate after 20 mins by Alpha-screen assay
[7] = molecular target: RAC-gamma serine/threonine-protein kinase (Homo sapiens, UniProt Q9Y243); test: Inhibition of Akt3 (1 to 479) expressed in Sf9 cells using biotin-GRPRTSSFAEG as substrate after 20 mins by Alpha-screen assay
Cytochrome P450 1A2 = molecular target: T2, Cytochrome P450 1A2 (Homo sapiens, UniProt P05177); test: Inhibition of CYP1A2 in human liver microsomes using phenacetin as substrate after 10 mins; assay type: ADME, Microsome
T2 sequence (P05177 whole entry): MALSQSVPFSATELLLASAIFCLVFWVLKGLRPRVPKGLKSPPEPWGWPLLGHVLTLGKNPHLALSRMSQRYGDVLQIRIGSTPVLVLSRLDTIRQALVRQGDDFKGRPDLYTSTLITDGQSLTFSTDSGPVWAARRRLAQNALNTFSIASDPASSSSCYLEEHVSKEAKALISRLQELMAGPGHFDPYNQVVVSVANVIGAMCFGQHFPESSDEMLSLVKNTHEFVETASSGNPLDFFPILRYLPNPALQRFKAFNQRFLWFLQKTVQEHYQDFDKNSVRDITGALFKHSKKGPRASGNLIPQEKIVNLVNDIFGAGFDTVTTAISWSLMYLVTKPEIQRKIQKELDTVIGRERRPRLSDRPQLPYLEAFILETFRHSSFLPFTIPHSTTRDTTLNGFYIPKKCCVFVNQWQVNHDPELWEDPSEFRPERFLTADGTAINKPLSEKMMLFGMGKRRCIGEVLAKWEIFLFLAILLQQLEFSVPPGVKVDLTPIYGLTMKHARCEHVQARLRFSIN

Cytochrome P450 2C8 = molecular target: T3, Cytochrome P450 2C8 (Homo sapiens, UniProt P10632); test: Inhibition of CYP2C8 in human liver microsomes using paclitaxel as substrate after 10 mins; assay type: ADME, Microsome
T3 sequence (P10632 whole entry): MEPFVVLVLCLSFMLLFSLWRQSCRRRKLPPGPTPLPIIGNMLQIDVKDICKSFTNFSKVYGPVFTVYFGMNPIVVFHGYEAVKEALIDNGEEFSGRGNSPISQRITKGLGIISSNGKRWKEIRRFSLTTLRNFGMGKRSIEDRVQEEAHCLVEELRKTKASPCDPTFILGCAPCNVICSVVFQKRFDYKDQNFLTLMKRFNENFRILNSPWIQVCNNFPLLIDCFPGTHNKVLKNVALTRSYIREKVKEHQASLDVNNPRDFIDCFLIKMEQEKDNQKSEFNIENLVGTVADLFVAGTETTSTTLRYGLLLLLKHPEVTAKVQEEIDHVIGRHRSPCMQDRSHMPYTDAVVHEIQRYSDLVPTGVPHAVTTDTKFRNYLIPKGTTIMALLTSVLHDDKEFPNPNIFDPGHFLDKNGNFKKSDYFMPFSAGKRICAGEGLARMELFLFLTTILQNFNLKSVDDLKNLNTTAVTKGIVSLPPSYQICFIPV

[8] = Half life in female CD1 mouse liver microsomes at 1 uM by LC/MS/MS; assay type: ADME, Microsome
[9] = molecular target: Cyclin-dependent kinase 1/cyclin B1 (Homo sapiens) (UniProt P06493+P14635); test: Inhibition of CDK1/cyclinB using fluorescent labelled substrate at 5 uM by caliper method; assay type: protein-complex assay
[10] = molecular target: Serine/threonine-protein kinase pim-1 (Homo sapiens) (UniProt P11309); test: Inhibition of PIM1 using fluorescent labelled substrate at 5 uM by caliper method
Sequence of Serine/threonine-protein kinase pim-1 (Homo sapiens) (P11309 whole entry, looked up): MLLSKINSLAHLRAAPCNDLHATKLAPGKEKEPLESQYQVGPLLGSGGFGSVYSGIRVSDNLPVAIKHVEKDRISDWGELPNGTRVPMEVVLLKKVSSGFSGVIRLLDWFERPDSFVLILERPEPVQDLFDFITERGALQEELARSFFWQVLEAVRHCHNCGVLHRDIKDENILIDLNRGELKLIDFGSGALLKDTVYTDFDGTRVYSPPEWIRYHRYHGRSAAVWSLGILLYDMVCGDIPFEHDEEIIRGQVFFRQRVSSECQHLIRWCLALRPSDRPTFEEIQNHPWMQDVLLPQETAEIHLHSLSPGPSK

[11] = molecular target: Protein kinase C theta type (Homo sapiens) (UniProt Q04759); test: Inhibition of PKCtheta using fluorescent labelled substrate at 5 uM by caliper method
Sequence of Protein kinase C theta type (Homo sapiens) (Q04759 whole entry, looked up): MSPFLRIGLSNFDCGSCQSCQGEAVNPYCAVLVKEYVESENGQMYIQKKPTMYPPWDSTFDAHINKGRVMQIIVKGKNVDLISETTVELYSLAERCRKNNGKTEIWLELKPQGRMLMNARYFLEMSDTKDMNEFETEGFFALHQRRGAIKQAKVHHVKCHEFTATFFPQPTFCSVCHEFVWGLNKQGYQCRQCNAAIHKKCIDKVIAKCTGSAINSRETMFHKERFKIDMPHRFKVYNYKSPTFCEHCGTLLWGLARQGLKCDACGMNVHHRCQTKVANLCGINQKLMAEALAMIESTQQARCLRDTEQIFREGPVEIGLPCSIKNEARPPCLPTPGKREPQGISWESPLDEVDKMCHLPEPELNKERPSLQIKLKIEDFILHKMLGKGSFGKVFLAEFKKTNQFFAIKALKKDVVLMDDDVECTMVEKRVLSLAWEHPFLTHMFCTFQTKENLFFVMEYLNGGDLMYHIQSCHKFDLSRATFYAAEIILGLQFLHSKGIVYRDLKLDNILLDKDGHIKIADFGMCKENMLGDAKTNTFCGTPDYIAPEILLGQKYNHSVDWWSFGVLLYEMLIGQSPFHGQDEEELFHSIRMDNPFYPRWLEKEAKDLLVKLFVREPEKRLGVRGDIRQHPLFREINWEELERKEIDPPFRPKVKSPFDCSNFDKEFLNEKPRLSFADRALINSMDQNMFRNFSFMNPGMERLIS

[12] = molecular target: Protein kinase C gamma type (Homo sapiens) (UniProt P05129); test: Inhibition of PKCgamma using fluorescent labelled substrate at 5 uM by caliper method
[13] = molecular target: Protein kinase C beta type (Homo sapiens) (UniProt P05771); test: Inhibition of PKCbeta1 using fluorescent labelled substrate at 5 uM by caliper method
Sequence of Protein kinase C beta type (Homo sapiens) (P05771 2-671 limits assumed): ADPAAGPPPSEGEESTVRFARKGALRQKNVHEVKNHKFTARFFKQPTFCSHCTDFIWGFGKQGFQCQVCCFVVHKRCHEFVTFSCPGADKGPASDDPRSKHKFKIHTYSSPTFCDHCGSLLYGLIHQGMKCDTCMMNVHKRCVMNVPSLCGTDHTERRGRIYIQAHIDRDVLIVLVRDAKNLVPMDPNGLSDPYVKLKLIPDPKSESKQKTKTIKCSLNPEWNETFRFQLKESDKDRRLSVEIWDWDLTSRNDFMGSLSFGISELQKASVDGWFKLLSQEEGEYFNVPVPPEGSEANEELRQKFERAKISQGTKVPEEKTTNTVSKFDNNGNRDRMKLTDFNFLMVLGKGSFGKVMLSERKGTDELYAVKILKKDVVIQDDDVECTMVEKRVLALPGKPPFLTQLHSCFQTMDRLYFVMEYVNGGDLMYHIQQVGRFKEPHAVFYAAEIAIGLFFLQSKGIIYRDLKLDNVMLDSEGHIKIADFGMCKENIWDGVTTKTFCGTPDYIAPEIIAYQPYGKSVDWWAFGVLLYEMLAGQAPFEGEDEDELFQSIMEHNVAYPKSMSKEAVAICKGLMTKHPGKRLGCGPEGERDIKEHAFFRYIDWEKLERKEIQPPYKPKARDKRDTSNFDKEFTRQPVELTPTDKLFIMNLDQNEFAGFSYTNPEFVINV

[14] = molecular target: Ribosomal protein S6 kinase beta-1 (Homo sapiens) (UniProt P23443); test: Inhibition of P70S6KB1 using fluorescent labelled substrate at 5 uM by caliper method
Sequence of Ribosomal protein S6 kinase beta-1 (Homo sapiens) (P23443 whole entry, looked up): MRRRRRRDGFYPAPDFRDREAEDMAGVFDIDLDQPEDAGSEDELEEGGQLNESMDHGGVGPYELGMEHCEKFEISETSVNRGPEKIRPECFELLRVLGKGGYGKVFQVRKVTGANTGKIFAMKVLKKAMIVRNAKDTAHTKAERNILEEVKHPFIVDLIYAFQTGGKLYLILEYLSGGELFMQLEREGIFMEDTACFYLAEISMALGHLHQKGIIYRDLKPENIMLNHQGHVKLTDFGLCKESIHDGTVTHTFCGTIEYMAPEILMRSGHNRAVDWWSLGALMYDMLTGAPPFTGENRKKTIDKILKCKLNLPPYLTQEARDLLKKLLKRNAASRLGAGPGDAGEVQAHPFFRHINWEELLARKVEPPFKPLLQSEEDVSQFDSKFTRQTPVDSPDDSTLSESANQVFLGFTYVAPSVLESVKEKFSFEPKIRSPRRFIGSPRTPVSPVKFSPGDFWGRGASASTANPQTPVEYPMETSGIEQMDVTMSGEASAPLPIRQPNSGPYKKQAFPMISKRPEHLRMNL

[15] = molecular target: T1, RAC-alpha serine/threonine-protein kinase; test: Inhibition of Akt1 (1 to 480) expressed in Sf9 cells by indirect affinity mass spectrometry assay

Sequence of Macrophage colony-stimulating factor 1 receptor (Homo sapiens) (P07333 whole entry): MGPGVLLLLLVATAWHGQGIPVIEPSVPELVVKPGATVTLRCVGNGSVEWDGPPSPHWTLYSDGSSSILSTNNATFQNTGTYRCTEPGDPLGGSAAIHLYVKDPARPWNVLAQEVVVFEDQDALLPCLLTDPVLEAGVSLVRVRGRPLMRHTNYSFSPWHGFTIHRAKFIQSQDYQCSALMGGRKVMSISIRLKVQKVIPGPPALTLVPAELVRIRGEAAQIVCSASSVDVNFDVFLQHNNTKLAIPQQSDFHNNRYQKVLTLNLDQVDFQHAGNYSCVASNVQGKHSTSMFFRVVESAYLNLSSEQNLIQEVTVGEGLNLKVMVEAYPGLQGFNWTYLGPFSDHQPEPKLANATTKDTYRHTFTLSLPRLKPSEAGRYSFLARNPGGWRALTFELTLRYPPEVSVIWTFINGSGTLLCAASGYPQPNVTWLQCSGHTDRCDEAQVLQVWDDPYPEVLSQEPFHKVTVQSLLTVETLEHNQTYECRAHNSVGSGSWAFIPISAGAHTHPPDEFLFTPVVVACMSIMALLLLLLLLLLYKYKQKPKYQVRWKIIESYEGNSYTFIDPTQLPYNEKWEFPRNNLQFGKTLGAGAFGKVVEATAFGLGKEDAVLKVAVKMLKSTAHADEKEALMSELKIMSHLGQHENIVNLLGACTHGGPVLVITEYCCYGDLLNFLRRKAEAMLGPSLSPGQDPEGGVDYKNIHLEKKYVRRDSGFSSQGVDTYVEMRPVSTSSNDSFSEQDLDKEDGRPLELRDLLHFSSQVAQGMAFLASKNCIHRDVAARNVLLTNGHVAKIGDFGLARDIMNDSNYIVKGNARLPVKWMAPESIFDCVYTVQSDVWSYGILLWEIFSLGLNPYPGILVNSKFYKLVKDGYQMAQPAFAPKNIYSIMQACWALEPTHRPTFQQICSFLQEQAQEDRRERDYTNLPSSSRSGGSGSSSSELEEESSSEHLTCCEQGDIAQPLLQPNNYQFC

SMILES | inhibition [1] [%] | inhibition [2] [%] | IC50 [3] [µM] | IC50 [4] [µM] | ΔTm [5] [°C] | IC50 [6] [µM] | IC50 [7] [µM] | IC50 (Cytochrome P450 1A2) [µM] | IC50 (Cytochrome P450 2C8) [µM] | half-life at 1 µM [8] [h] | inhibition [9] [%] | inhibition [10] [%] | inhibition [11] [%] | inhibition [12] [%] | inhibition [13] [%] | inhibition [14] [%] | IC50 [15] [µM]
Nc1ncccc1-c1nc2cccnc2n1-c1ccc(CNC(=O)c2ccccc2)cc1 | > 25 | > 25 | 5.6 | > 10 | 1.3 | 0.023 | 24 | > 10 | > 10 | > 1 | > 25 | > 25 | > 25 | > 25 | > 25 | > 25 | –
Nc1ncccc1-c1nc2cccnc2n1-c1ccc(CC(=O)Nc2ccccc2)cc1 | > 25 | > 25 | 2.5 | > 10 | 1.2 | – | 22 | > 10 | > 10 | > 1 | > 25 | > 25 | > 25 | > 25 | > 25 | > 25 | 14
